Data from PMC7377239, “Cardiovascular Effects of Polychlorinated Biphenyls and Their Major Metabolites” (Environmental Health Perspectives, 2020).
Read-outs that look alike come from different tables or passages of the source.

Tested on: iCell cardiomyocytes (human iPSC-derived cardiomyocytes)
Test: High-content imaging of cytotoxicity and mitochondrial integrity in iPSC-CMs
Type: cell-based
Details: for viability at 0.01 µM / activity at 0.01 µM / viability at 0.1 µM / activity at 0.1 µM / viability at 1 µM / activity at 1 µM / viability at 10 µM / activity at 10 µM / viability at 100 µM / activity at 100 µM / minimal effective concentration: Homo sapiens, Cardiomyocyte; for viability at 0.01 µM / activity at 0.01 µM / viability at 0.1 µM / activity at 0.1 µM / viability at 1 µM / activity at 1 µM / viability at 10 µM / activity at 10 µM / viability at 100 µM / activity at 100 µM: 0.00 µM = 100.00; for viability at 0.1 µM / activity at 0.1 µM: 0.10 µM
In short: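 Cardiomyocytes grown on gelatinized 384-well plates received fresh medium on the experiment day and were then exposed to chemicals at 0.01–100μM. Nuclei and mitochondria were labeled with Hoechst 33342 and MitoTracker™ Orange, then fixed, and imaged on an ImageXpress® Micro Confocal system. Four-parameter logistic concentration–response fits in R, with a one-standard-deviation vehicle cutoff, gave point-of-departure values.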

[1] = 1.5 h, 90min, read-out: cm.cam.90min
[2] = 1.5 h, 90min, read-out: cm.mii.90min
[3] = 1.5 h, 90min, read-out: cm.mito.90min
[4] = 1.5 h, 90min, read-out: cm.tc.90min
[5] = 24 h, 24hrs, read-out: cm.cam.24hrs
[6] = 24 h, 24hrs, read-out: cm.mii.24hrs
[7] = 24 h, 24hrs, read-out: cm.mito.24hrs
[8] = 24 h, 24hrs, read-out: cm.tc.24hrs
[9] = 1.5 h, cardiomyocytes (cm), cam, 90 min, read-out: POD cm.cam.90min
[10] = 1.5 h, cardiomyocytes (cm), mii, 90 min, read-out: POD cm.mii.90min
[11] = 1.5 h, cardiomyocytes (cm), mito, 90 min, read-out: POD cm.mito.90min
[12] = 1.5 h, cardiomyocytes (cm), tc, 90 min, read-out: POD cm.tc.90min
[13] = 24 h, cardiomyocytes (cm), cam, 24 hrs, read-out: POD cm.cam.24hrs
[14] = 24 h, cardiomyocytes (cm), mii, 24 hrs, read-out: POD cm.mii.24hrs
[15] = 24 h, cardiomyocytes (cm), mito, 24 hrs, read-out: POD cm.mito.24hrs
[16] = 24 h, cardiomyocytes (cm), tc, 24 hrs, read-out: POD cm.tc.24hrs

Clc1cc(Cl)c(-c2cc(Cl)c(Cl)cc2Cl)cc1Cl [PCB153]
viability at 0.01 µM [1]: 98.3% | activity at 0.01 µM [2]: 112% | activity at 0.01 µM [3]: 98.2% | viability at 0.01 µM [4]: 98.1% | viability at 0.1 µM [1]: 96.8% | activity at 0.1 µM [2]: 109% | activity at 0.1 µM [3]: 96.6% | viability at 0.1 µM [4]: 96.6% | viability at 1 µM [1]: 102% | activity at 1 µM [2]: 112% | activity at 1 µM [3]: 102% | viability at 1 µM [4]: 102% | viability at 10 µM [1]: 99.4% | activity at 10 µM [2]: 102% | activity at 10 µM [3]: 99.5% | viability at 10 µM [4]: 99.5% | viability at 100 µM [1]: 1.35% | activity at 100 µM [2]: 91% | activity at 100 µM [3]: 1.22% | viability at 100 µM [4]: 1.5% | minimal effective concentration (1.5 h, 90min, read-out: cm.cam.90min POD): 20.6 µM | minimal effective concentration (1.5 h, 90min, read-out: cm.mii.90min POD): 100 µM | minimal effective concentration (1.5 h, 90min, read-out: cm.mito.90min POD): 19.8 µM | minimal effective concentration (1.5 h, 90min, read-out: cm.tc.90min POD): 23.2 µM | viability at 0.01 µM [5]: 94.6% | activity at 0.01 µM [6]: 88.6% | activity at 0.01 µM [7]: 94.7% | viability at 0.01 µM [8]: 95.8% | viability at 0.1 µM [5]: 98.2% | activity at 0.1 µM [6]: 109% | activity at 0.1 µM [7]: 99.3% | viability at 0.1 µM [8]: 98.3% | viability at 1 µM [5]: 99.7% | activity at 1 µM [6]: 80.6% | activity at 1 µM [7]: 100% | viability at 1 µM [8]: 99.9% | viability at 10 µM [5]: 96.8% | activity at 10 µM [6]: 99.6% | activity at 10 µM [7]: 95.2% | viability at 10 µM [8]: 96.5% | viability at 100 µM [5]: 1.91% | activity at 100 µM [6]: 23.6% | activity at 100 µM [7]: 0.34% | viability at 100 µM [8]: 1.92% | minimal effective concentration (24 h, read-out: cm.cam.24hrs POD): 11.6 µM | minimal effective concentration (24 h, read-out: cm.mii.24hrs POD): 39.9 µM | minimal effective concentration (24 h, read-out: cm.mito.24hrs POD): 10.5 µM | minimal effective concentration (24 h, read-out: cm.tc.24hrs POD): 11.1 µM

Clc1ccc(-c2ccccc2)cc1 [PCB 3, 4-chlorobiphenyl]
minimal effective concentration [9]: 24.9 µM | minimal effective concentration [10]: 6.86 µM | minimal effective concentration [11]: 21.2 µM | minimal effective concentration [12]: 20 µM | minimal effective concentration [13]: 7.4 µM | minimal effective concentration [14]: 10.9 µM | minimal effective concentration [15]: 6.67 µM | minimal effective concentration [16]: 6.97 µM

Clc1cccc(-c2cccc(Cl)c2)c1 [PCB 11, 3,3′-Dichlorobiphenyl]
minimal effective concentration [9]: 18.6 µM | minimal effective concentration [10]: 12.4 µM | minimal effective concentration [11]: 14.2 µM | minimal effective concentration [12]: 16.7 µM | minimal effective concentration [13]: 35.2 µM | minimal effective concentration [14]: 9.6 µM | minimal effective concentration [15]: 33.1 µM | minimal effective concentration [16]: 35.1 µM

Clc1ccc(Cl)c(-c2cc(Cl)ccc2Cl)c1 [PCB 52, 2,2′,5,5′-tetrachlorobiphenyl]
minimal effective concentration [9]: 36 µM | minimal effective concentration [10]: 10.4 µM | minimal effective concentration [11]: 39.2 µM | minimal effective concentration [12]: 38.9 µM | minimal effective concentration [13]: 7.5 µM | minimal effective concentration [14]: 34.4 µM | minimal effective concentration [15]: 7.32 µM | minimal effective concentration [16]: 8.11 µM

Clc1ccc(Cl)c(-c2c(Cl)ccc(Cl)c2Cl)c1 [PCB 95, 2,2′,3,5′,6-pentachlorobiphenyl]
minimal effective concentration [9]: 36.6 µM | minimal effective concentration [10]: 100 µM | minimal effective concentration [11]: 39.6 µM | minimal effective concentration [12]: 38.7 µM | minimal effective concentration [13]: 8.98 µM | minimal effective concentration [14]: 22.2 µM | minimal effective concentration [15]: 8.96 µM | minimal effective concentration [16]: 8.75 µM

Clc1ccc(-c2cc(Cl)c(Cl)c(Cl)c2)cc1Cl [PCB 126, 3,3′,4,4′,5-pentachlorobiphenyl]
minimal effective concentration [9]: 100 µM | minimal effective concentration [10]: 100 µM | minimal effective concentration [11]: 100 µM | minimal effective concentration [12]: 100 µM | minimal effective concentration [13]: 7.03 µM | minimal effective concentration [14]: 100 µM | minimal effective concentration [15]: 7.54 µM | minimal effective concentration [16]: 6.48 µM | effect on cell viability in iPSC-CMs (iPSC-CMs, 0.01-100 μM, 90 min and 24 h): little effect on cell viability

Clc1cc(Cl)c(-c2cc(Cl)c(Cl)cc2Cl)cc1Cl [PCB 153, 2,2′,4,4′,5,5′-hexachlorobiphenyl]
minimal effective concentration [9]: 20.6 µM | minimal effective concentration [10]: 100 µM | minimal effective concentration [11]: 19.8 µM | minimal effective concentration [12]: 23.2 µM | minimal effective concentration [13]: 11.6 µM | minimal effective concentration [14]: 39.9 µM | minimal effective concentration [15]: 10.5 µM | minimal effective concentration [16]: 11.1 µM
